For one data set, the system named is human sperm motility. In words: Computer-assisted sperm analysis (CASA) of human sperm motility. In kind it is cell-based. The settings on record: for IC50: Homo sapiens, Sperm. How it is done: In another embodiment, a computer-assisted sperm analysis (CASA) can be used as a live cell compound screen for determining the effect of compounds on human sperm motility. Additionally, to facilitate the IC50 evaluation of compounds using different ejaculates, reducing inter-assay variation due to differences in sperm quality in different semen samples, an index of relative motility inhibition (RMI) was developed.
This is calculated as: RMI=[% motility*VSL]; percentage of motile sperm (% motility) or the percentage of progressively motile sperm (% progressive motility, RPMI) multiplied by the straight-line velocity (VSL); the average velocity measured in a straight line from the beginning to the end of a track in μm/sec.
Normalized RMI can be calculated by dividing the RMI of each experimental condition by its respective DMSO control.
Computer-assisted sperm analysis (CASA) was used as a live cell compound screen for determining the effect of compounds on human sperm motility. Computer-assisted sperm analysis (CASA) was performed using the approach taught in Mitra et al., Biology of Reproduction, Vol. 82, p 491 (2010), to determine the parameters of the control versus compound-treated spermatozoa. The parameters measured are: average pathway velocity (VAP: the average velocity of the smoothed cell path in 1 m/sec), the straight-line velocity (VSL: the average velocity measured in a straight line from the beginning to the end of track in 1 m/sec), the curvilinear velocity (VCL: the average velocity measured over the actual point-to-point track of the cell in 1 m/sec), the lateral head amplitude (ALH: amplitude of lateral head displacement in 1 m), the beat cross-frequency (BCF: frequency of sperm head crossing the sperm average path in Hz), the straightness (STR: the average value of the ratio VSL/VAP in %), and the linearity (LIN: the average value of the ratio VSL/VCL in %). The sperm motility parameters are assessed in pre-warmed (37° C.) two- or four-chambered 20-mm Leja slides, loading 5 μL or 2 μL, respectively, of the samples in each chamber and immediately using CASA. This computerized measuring device included a phase-contrast microscope (Olympus CX41), a camera, a mini-therm stage warmer, an image digitizer, and a computer to store and analyze data. The software used for data analysis is the HTR Ceros 12.3 (Hamilton-Thorne Biosciences). A range of 13 to 20 fields are scanned from each chamber. Progressive cells had to have a minimum of 25 μm/sec VAP and 80% of STR.
To facilitate the IC50 evaluation of compounds using different ejaculates, reducing inter-assay variation due to differences in sperm quality in different semen samples, an index of relative motility inhibition (RMI) was developed. This is calculated as: RMI=[% motility*VSL]; percentage of motile sperm (% motility) or the percentage of progressively motile sperm (% progressive motility, RPMI) multiplied by the straight-line velocity (VSL); the average velocity measured in a straight line from the beginning to the end of a sperm track in μm/sec. Normalized RMI (RPMI) was calculated by dividing the RMI of each experimental condition by its respective DMSO control.
The analysis of sperm motility was carried out with computer-assisted sperm analysis (CASA) (Ceros version 12.3 software; Hamilton-Thorne), using the techniques taught in Mitra et al., Biology of Reproduction, Vol. 82, p 491 (2010).

Data set [1] is described as follows: Aqueous solubility (nephelometric method). In kind it is physicochemical. The settings on record: at 100 μM. How it is done:
Solutions of the test compound were prepared from DMSO stock solution at the specified test concentrations. The solutions were mixed thoroughly and aliquoted into a 384-well plate, incubated for 1 hour at 37° C., and the degree of light scattering in each solution was measured at 635 nm using a laser-based microplate nephelometer. The mean nephelometric reading at each concentration was calculated and compared to that of the blank solution and a positive control (a solution of latex at a minimum concentration sufficient to give a mean reading higher than that of blank solution, as determined by a calibration curve). The compound was judged to be soluble at a specific concentration if the mean reading was less than the reading of the positive control. In cases where the mean reading was greater than or equal to the positive control, the solution was reported as having a precipitate and a percent precipitation value was calculated using the following formula: % precipitation=(mean test compound−mean blank)/(mean positive control−mean blank)×100

The subject of another data set is human spermatozoa. In words: Intracellular free calcium in Fluo-4 loaded spermatozoa. It counts as cell-based. How it is done:
A series of experiments was performed to determine the mechanism of action of the compounds described herein. The experiments were carried out as described in O'Rand and Widgren, “Loss of Calcium in Human Spermatozoa via EPPIN, the Semenogelin Receptor,” Biology of Reproduction, (2012) 86(2):55, 1-7.
Fluo-4 AM-loaded spermatozoa were pipetted into 96-well black-walled plates (Perkin Elmer, Waltham, Mass.) at 1.13105-0.93105 spermatozoa/well in 50 μl of M16M at 378 C, and read in a BioTek (Winookski, Vt.) Synergy2 Multiplatform automated plate reader (with heater and shaker). Wells were excited using a 485/20 filter, and emission was read with a 528/20 filter, and data were acquired using a kinetic modification of the Alexafluor 488 protocol in the Gen5 software program (BioTek). […] After treatment of spermatozoa in each well with control or test reagents was completed (10-15 min), the Fluo-4 in the spermatozoa in each well was calibrated by adding ionomycin (2.5 μM), followed 15 min later by the addition of Mn^2 (2 mM MnCl2) to bring the fluorescence (F) to 30% of that of the saturated dye. […] Using these values for each well, the Fmax and Fmin were calculated according to the method of Kao et al. [Kao et al., J Biol Chem. 1989; 264:8179-8184.].
Fluorescence measurements were converted to calcium concentration according to the equation [Ca^2+]=Kd([F−Fmin]/[Fmax−F]) […]

This is an account of results in US10472334B2, “Small molecules for inhibiting male fertility” (The University of North Carolina at Chapel Hill, priority 2014, dated 2019).

Like-named read-outs stand apart in the source and are kept apart here.

In the case of `CCOC(=O)CSc1nc(NNC(=O)OC)nc(Nc2ccc(NC(=O)OC)c(O)c2)n1` [TZ4_121, [4-(3-Hydroxy-4-methoxycarbonylamino-phenylamino)-6-(N′methoxycarbonyl-hydrazino)-1,3,5-triazin-2-ylsulfanyl]-acetic acid ethyl ester], the “change in progressive motility” value in the data set on human sperm motility (FIG. 7, 12.5 μM) is reported as “significant decrease in progressive motility”. The IC50 in the data set with human sperm motility (FIG. 10, RMI using % progressive motility, read-out: IC50 in terms of progressive motility) is ~4.3 µM; with human sperm motility (FIGS. 3 and 4, read-out: IC50, CASA, RMI (relative motility)) it was ~7.5 µM; in the data set with human sperm motility (relative motility index using % progressive motility, read-out: CASA IC50 RPMI) it was 7.5 µM. In the data set on human sperm motility (concentration of around 20 μM, FIG. 5), the “time until infertility would likely result, time course of sperm motility” value lay within 3 to 5 min. The sperm killed with human sperm motility (within 3 minutes) was > 70%. In addition, the solubility entry in data set [1] was “Good”. Besides, in the data set with human spermatozoa, the “change in intracellular calcium of spermatozoa” value was “significant loss of calcium”.

A word on the IC50: it is the point on the concentration scale where inhibition reaches its midpoint.
